# According to patent US6787519B2, “Methods of treating disorders related to apoE” (The Regents of the University of California, priority 2000, dated 2004):
# Square brackets hold non-standard residues; d marks the D form. Peptide text beside a SMILES is read from it. * marks the point of attachment. Sta = CC(C)C[C@H](N)[C@@H](O)CC(=O)O; Isovaleryl = CC(C)CC(=O)*
# What was measured:
# [1] = test system: Neuro2a cells expressing apoE3; test: formation of apoE and p-tau immunoreactive intracellular inclusions after Aβ or ER stress inducers; assay type: cell-based, mouse; details: untreated 0%; p<0.001
# Procedure: (§1) Cell cultures—Murine neuroblastoma (Neuro-2a) cells were obtained from American Type Culture Collection (Rockville, Md.). Neuro-2a cells were maintained at 37° C. in a humidified 5% CO2 incubator in MEM-containing 10% FBS, supplemented with non-essential amino acids, penicillin, and streptomycin.
# (§2) Transient transfection of cells—Neuro-2a, NT2-N, or cultured mouse primary neurons were transiently transfected with various apoE cDNA constructs, as listed in Table I, by using lipofectamine method. Briefly, 2 μg of apoE DNA were pre-incubated with 7 μl of lipofectamine in 200 μl of serum-free MEM containing N2-supplements at room temperature for 30 minutes. After addition of 800 μl of serum-free MEM containing N2-supplements, the mixture was added into the cells that had been washed three times with serum-free MEM. Ten to forty-eight hours later, the transfected cells were used for different experiments.
# (§3) Immunocytochemistry—Neuro-2a cells were grown in 2-well chamber slides for 24 hours and were then transiently transfected with different apoE3 or apoE4 DNA constructs, as described above. After washing twice in PBS, the transfected cells were fixed with 3% paraformaldehyde in PBS for 30 minutes at room temperature, washed twice in PBS, and then permeabilized with Triton-X100 for 5 minutes which was followed by three washes in PBS.
# (§4) To block nonspecific reactions, all slides were incubated for 1 hour at room temperature with PBS containing 2% BSA and 10% normal serum (Vector) derived from the same species as the source of secondary antibody (sheep or rabbit), followed by a 1-hour incubation with the primary antibody (monospecific rabbit anti-human apoE, 1:500; monoclonal anti-p-tau, 1:100-1:1000, anti-p-NF—H, 1:100-1:500) in PBS containing 2% BSA.
# (§5) Slides were then washed three times in PBS containing 2% BSA and incubated for 1 hour at room temperature with the secondary antibody (FITC-coupled anti-rabbit IgG to detect antigen-bond anti-human apoE, Rodamine- or Cy5-coupled anti-mouse IgG to detect antigen-bond anti-p-tau or anti-p-NF—H). After three washes in PBS containing 2% BSA, immunofluorescently labeled slides were mounted in VectaShield (Vector) and viewed with a MRC-1024 laser scanning confocal system (Bio-Rad) mounted on an Optiphot-2 microscope (Nikon, Tokyo, Japan).
# (§6) Since Aβ deposition is a major pathological component within the brains of Alzheimer's disease patients, we determined the effect of Aβ treatment on the formation of apoE and p-tau immunoreactive intracellular inclusions in Neuro2a cells expressing apoE.
# (§7) Since Aβ treatment of cells can cause ER stress (TN98), other ER stress inducers, including Brefeldin A (BfA) and tunicamycin (TN98), were used to determine whether ER stress can increase the formation of intracellular inclusions in apoE transfected Neuro2a cells. Incubation with either BfA or tunicamycin increased the inclusion-positive cells from 2.7±1.2% to 7.2±2.1% (p<0.001) in apoE4 expressing cells and from 0% to 3.2±1.1% (p<0.001) in apoE3 expressing cells.
# [2] = test system: Neuro2a cells expressing apoE4; test: as above; assay type: cell-based, mouse; details: untreated 2.7±1.2%; p<0.001
# Procedure: as §1, §2, §3, §4, §5, §6, §7
# [3] = test system: apoE cleavage enzyme; test: cleavage of apoE4 in the presence of known protease inhibitors, anti-apoE western blot; assay type: biochemical, mouse
# Procedure: To test this hypothesis, purified human apoE3 or apoE4 were incubated with brain lysates of apoE knockout mice at 37° C. for 3 hours and the proteolysis of apoE was analyzed by anti-apoE western blot.
# To determine the biochemical properties of the putative apoE cleavage enzyme, we tested the effects of different known inhibitors for four major categories of proteases, i.e., serine proteases, cysteine proteases, aspartate proteases, and metalloproteases.
# [4] = test system: apoE cleavage enzyme; test: inhibition of apoE4 cleavage by partially purified apoE cleavage enzyme, anti-apoE western blot; assay type: biochemical, mouse; details: peptide 1 mM, 4 μg apoE4, 3 hours at 37° C.
# From the text: The peptides Ala-Ala-Pro-Phe (SEQ ID NO:1) and Ala-Ala-Pro-Leu (SEQ ID NO:3) were further tested for the inhibition of apoE cleavage. […] Thus, both Ala-Ala-Pro-Phe (SEQ ID NO:1) and Ala-Ala-Pro-Leu (SEQ ID NO:3) can be used as peptide inhibitors for the apoE cleavage enzyme.
# [5] = test system: apoE cleavage enzyme; test: chromogenic assay with Ala-Ala-Pro-Phe-p-nitroanilide as substrate; assay type: biochemical, mouse; details: 1 mM Ala-Ala-Pro-Phe-p-nitroanilide substrate
# Procedure: To monitor the cleavage activity, a chromogenic group (p-nitroanilide) was added to the carboxyl-side of the last amino acid at the C-terminus. If the enzyme cuts the bond between the last amino acid and p-nitroanilide, the released p-nitroanilide will yield a yellow color, which can be monitored by a spectrophotometer at about 390-410 nm.
# Importantly, a proline at the P2 position and two hydrophobic amino acids (such as alanine, Ala) at the P3 and P4 positions are critical for determining the efficiency of the cleavage. Taken together, the putative apoE cleavage enzyme is a chymotrypsin-like serine protease, which recognizes the motif of Ala-Ala-Pro-Phe (SEQ ID NO:1), Ala-Ala-Pro-Met (SEQ ID NO:2), Ala-Ala-Pro-Leu (SEQ ID NO:3), or a similar sequence in the substrate peptides or proteins. By using Ala-Ala-Pro-Phe-p-nitroanilide as a substrate, the chromogenic assay can be used as a high-throughput method to screen drugs, agents, or chemical compounds that inhibit apoE cleavage activity. Para-nitroanilide is detected spectrophotometrically at about 390-410 nm.
# By using the chromogenic assay, in which 1 mM Ala-Ala-Pro-Phe-p-nitroanilide was used as the substrate, we screened many peptides towards the inhibition of the apoE cleavage enzyme activity.
# [6] = test system: Neuro-2a cells expressing apoE3 or apoE4; test: generation of carboxyl-terminal truncated apoE in cells incubated with Aβ1-42, immunoprecipitation and anti-apoE western blotting; assay type: cell-based, mouse; details: more so with apoE4
# Procedure: Immunoprecipitation and western blotting—Neuro-2a cells were grown to 80% confluence in 6-well plates or 15-cm dishes and were then transiently transfected with different apoE DNA constructs, as described above. Twenty-four to forty-eight hours later, the cells were harvested and lysed in ice-cold lysis buffer for 30 minutes. After spinning to remove nuclei (13,000 rpm for 15 minutes), apoE in supernatant was immunoprecipitated with monospecific rabbit anti-human apoE antibody and protein-A agarose beads. The immunoprecipitates were washed twice with lysis buffer and three times with PBS. The presence of apoE, p-tau, or p-NF—H in the immunoprecipitates was analyzed by western blotting using the corresponding antibodies. Alternatively, the supernatants of cell lysates were immunoprecipited with monoclonal anti-p-tau or anti-p-NF—H antibodies and, then, the presence of apoE was analyzed by anti-apoE western blotting.
# Since Aβ1-42 increased formation of intracellular inclusions in Neuro2a cells expressing apoE4, we next determined whether treatment of the transfected cells with Aβ will increase generation of the carboxyl-terminal truncated form of apoE. Neuro-2a cells expressing apoE3 or apoE4 were incubated with Aβ1-42, then, intracellular apoE was immunoprecipitated and detected by anti-apoE western blotting. […]
# [7] = test system: Neuro-2a cells; test: incubation of cells with exogenous recombinant apoE4(Δ272-299) complexed with β-VLDL; assay type: cell-based, mouse; details: 30 hours incubation
# Procedure: In human brains, apoE is synthesized and secreted primarily by astrocytes, although human neurons are capable of producing apoE. The secreted apoE can be internalized by neurons. To determine whether internalized apoE4(Δ272-299) can induce formation of NFT-like structures in neurons. Neuro-2a cells were incubated with recombinant apoE4(Δ272-299), which had been complexed with the lipid transport vehicle β-VLDL. After 30 hours incubation, neurite outgrowth and the formation of NFT-like structures in the cells were determined. […] These structures were identical to the tangle-like structures formed in Neuro-2a cells expressing GFP-apoE4(Δ272-299) in the cytosol. Therefore internalized apoE4(Δ272-299) can escape the endosomal-lysosomal pathway and interact with cytosolic p-tau and p-NF—H.
# [8] = test system: Neuro-2a cells; test: formation of intracellular inclusions / NFT-like structures in cells transfected with truncated apoE constructs; assay type: cell-based, mouse; details: constructs with deletion of 28 carboxyl-terminal amino acids
# Procedure: as §1, §2
# Immunocytochemistry—Neuro-2a cells were grown in 2-well chamber slides for 24 hours and were then transiently transfected with different apoE3 or apoE4 DNA constructs, as described above. […]
# For the cells transiently transfected with GFP-apoE DNA constructs, after fixed in 3% paraformaldehyde and washed twice in PBS, the green fluorescence was viewed directly with a MRC-1024 laser scanning confocal system (Bio-Rad) as described above. […]
# [9] = 6 mM peptide, 20 hour incubation
compound,measurement,setting,value
"C[C@H]1CCC/C=C/[C@@H]2C[C@H](O)C[C@H]2[C@H](O)/C=C/C(=O)O1 [BfA, Brefeldin A]",inclusion-positive apoE3 expressing cells after treatment,[1],3.2±1.1%
same,inclusion-positive apoE4 expressing cells after treatment,[2],7.2±2.1%
CC(C)C[C@H](NC(=O)[C@H]1O[C@@H]1C(=O)O)C(=O)NCCCCN=C(N)N [E-64],inhibition of the cleavage of apoE4,[3],did not inhibit
O=C(O)CN(CCOCCOCCN(CC(=O)O)CC(=O)O)CC(=O)O [EGTA],inhibition of the cleavage of apoE4,[3],did not inhibit
O=S(=O)(F)Cc1ccccc1 [PMSF],inhibition of the cleavage of apoE4,[3],totally abolished
CC(C)CC(=O)N[C@H](C(=O)N[C@H](C(=O)N[C@@H](CC(C)C)[C@@H](O)CC(=O)N[C@@H](C)C(=O)N[C@@H](CC(C)C)[C@@H](O)CC(=O)O)C(C)C)C(C)C [pepstain] (Isovaleryl-VV[Sta]A[Sta]-OH),inhibition of the cleavage of apoE4,[3],did not inhibit
Ala-Ala-Pro-Leu (AAPL; OTHER INFORMATION: synthetic peptide),inhibition of apoE cleavage,[4],significant inhibition
same,inhibition of apoE cleavage enzyme activity,[5]; [9],56%
Ala-Ala-Pro-Phe (AAPF; OTHER INFORMATION: synthetic peptide),inhibition of apoE cleavage,[4],significant inhibition
same,inhibition of apoE cleavage enzyme activity,[5]; [9],67%
Aβ1-42: amyloid beta (Aβ) peptide 1-42,amounts of the carboxyl-terminal truncated forms of both apoE3 and apoE4,[6],significantly increased
same,inclusion-positive apoE3 expressing cells after treatment,[1],2.8±0.6%
same,inclusion-positive apoE4 expressing cells after treatment,[2],6.7±1.5%
apoE4 (Δ272-299): apoE4 with deletion of 28 carboxyl-terminal amino acids,neurite outgrowth,[7],did not show neurite outgrowth
same,formation of NFT-like structures,[7]; anti-apoE immunofluorescent staining,NFT-like structures were formed
same,transfected cells displaying the intracellular filamentous inclusions,[8],78±8%
"apoE4: human apolipoprotein E isoform apoE4, full-length",inhibition of apoE cleavage enzyme activity,[5]; 7 μM apoE4,89%
tunicamycin,inclusion-positive apoE3 expressing cells after treatment,[1],3.2±1.1%
same,inclusion-positive apoE4 expressing cells after treatment,[2],7.2±2.1%
